Measured values reported in patent US7750003B2, “Compounds-943” (AstraZeneca AB, priority 2006, dated 2010).

Target: recombinant mTOR (FLAG-tagged, residues 1362-2549) (Homo sapiens, UniProt P42345)
Assay: In vitro mTOR kinase assay (Test (a), AlphaScreen)
Format: biochemical
Details: ATP 20 μM, read-out: Test (a): IC50 versus mTOR kinase
Summary of the method: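 AlphaScreen read-out: a phospho-T389 p70 S6K antibody on acceptor beads captures the phosphorylated biotin-peptide on donor beads, with signal loss indicating inhibition.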

Sequence of recombinant mTOR (FLAG-tagged, residues 1362-2549) (P42345 1362-2549): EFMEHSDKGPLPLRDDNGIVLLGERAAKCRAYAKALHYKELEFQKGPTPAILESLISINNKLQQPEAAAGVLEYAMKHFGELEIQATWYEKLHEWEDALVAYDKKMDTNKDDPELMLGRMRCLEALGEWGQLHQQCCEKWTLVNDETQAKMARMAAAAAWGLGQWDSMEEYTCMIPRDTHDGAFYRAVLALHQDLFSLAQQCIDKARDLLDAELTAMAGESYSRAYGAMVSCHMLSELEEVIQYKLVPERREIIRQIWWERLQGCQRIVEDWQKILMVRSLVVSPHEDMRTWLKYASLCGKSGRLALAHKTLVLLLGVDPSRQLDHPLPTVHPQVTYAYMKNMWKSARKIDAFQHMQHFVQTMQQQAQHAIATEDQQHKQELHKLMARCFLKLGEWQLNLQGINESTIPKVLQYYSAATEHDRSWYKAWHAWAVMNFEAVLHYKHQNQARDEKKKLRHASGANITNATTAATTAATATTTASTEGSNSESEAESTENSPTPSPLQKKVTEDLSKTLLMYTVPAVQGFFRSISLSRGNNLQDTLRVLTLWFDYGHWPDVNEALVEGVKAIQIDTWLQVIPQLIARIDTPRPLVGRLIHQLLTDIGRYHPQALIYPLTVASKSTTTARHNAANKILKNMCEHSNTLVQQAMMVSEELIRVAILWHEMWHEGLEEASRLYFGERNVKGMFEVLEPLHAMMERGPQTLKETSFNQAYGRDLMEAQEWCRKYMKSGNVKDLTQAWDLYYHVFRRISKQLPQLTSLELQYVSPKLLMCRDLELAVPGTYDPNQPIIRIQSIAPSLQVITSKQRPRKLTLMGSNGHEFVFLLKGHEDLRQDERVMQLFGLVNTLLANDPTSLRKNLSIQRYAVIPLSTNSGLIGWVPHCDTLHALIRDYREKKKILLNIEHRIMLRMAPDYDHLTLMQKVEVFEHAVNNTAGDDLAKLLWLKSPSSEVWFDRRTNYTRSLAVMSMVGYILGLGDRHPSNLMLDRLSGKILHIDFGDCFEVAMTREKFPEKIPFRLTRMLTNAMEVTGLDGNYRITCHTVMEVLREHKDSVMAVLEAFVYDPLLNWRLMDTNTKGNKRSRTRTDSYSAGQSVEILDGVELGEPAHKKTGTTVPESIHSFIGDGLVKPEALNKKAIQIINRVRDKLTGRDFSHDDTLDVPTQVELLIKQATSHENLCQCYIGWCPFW

Compound | IC50 [nM]
C[C@H]1COCCN1c1cc(C(C)(C)S(C)(=O)=O)nc(-c2cc(F)c(NC(=O)NC3CC3)c(F)c2)n1 [Example 24ad, 3-cyclopropyl-1-[2,6-difluoro-4-[4-[(3S)-3-methylmorpholin-4-yl]-6-(2-methylsulfonylpropan-2-yl)pyrimidin-2-yl]phenyl]urea] | 510
C[C@H]1COCCN1c1cc(C(C)(C)S(C)(=O)=O)nc(-c2cc(F)c(NC(=O)NCc3cnn(C)c3)c(F)c2)n1 [Example 24ae, 1-[2,6-difluoro-4-[4-[(3S)-3-methylmorpholin-4-yl]-6-(2-methylsulfonylpropan-2-yl)pyrimidin-2-yl]phenyl]-3-[(1-methylpyrazol-4-yl)methyl]urea] | 240
C[C@H]1COCCN1c1cc(CS(C)(=O)=O)nc(-c2ccc(NC(=O)NCCc3c[nH]cn3)cc2)n1 [Example 24b, 3-[2-(1H-imidazol-4-yl)ethyl]-1-[4-[4-[(3S)-3-methylmorpholin-4-yl]-6-(methylsulfonylmethyl)pyrimidin-2-yl]phenyl]urea] | 38
CNC(=O)Nc1ncc(-c2nc(N3CCOC[C@@H]3C)cc(C(C)(C)S(C)(=O)=O)n2)cn1 [Example 24bh, 3-methyl-1-[5-[4-[(3S)-3-methylmorpholin-4-yl]-6-(2-methylsulfonylpropan-2-yl)pyrimidin-2-yl]pyrimidin-2-yl]urea] | 12
C[C@H]1COCCN1c1cc(C(C)(C)S(C)(=O)=O)nc(-c2ccc(NC(=O)NCc3cnn(C)c3)nc2)n1 [Example 24bi, 1-[5-[4-[(3S)-3-methylmorpholin-4-yl]-6-(2-methylsulfonylpropan-2-yl)pyrimidin-2-yl]pyridin-2-yl]-3-[(1-methylpyrazol-4-yl)methyl]urea] | 430
C[C@H]1COCCN1c1cc(C(C)(C)S(C)(=O)=O)nc(-c2ccc(NC(=O)NCCO)cc2)n1 [Example 24bj, 3-(2-hydroxyethyl)-1-[4-[4-[(3S)-3-methylmorpholin-4-yl]-6-(2-methylsulfonylpropan-2-yl)pyrimidin-2-yl]phenyl]urea] | 51
Cc1cnc(CNC(=O)Nc2ccc(-c3nc(CS(C)(=O)=O)cc(N4CCOC[C@@H]4C)n3)cc2)cn1 [Example 24c, 3-[4-[4-[(3S)-3-methylmorpholin-4-yl]-6-(methylsulfonylmethyl)pyrimidin-2-yl]phenyl]-1-[(5-methylpyrazin-2-yl)methyl]urea] | 560
C[C@H]1COCCN1c1cc(CS(C)(=O)=O)nc(-c2ccc(NC(=O)NCc3ccccn3)cc2)n1 [Example 24d, 1-[4-[4-[(3S)-3-methylmorpholin-4-yl]-6-(methylsulfonylmethyl)pyrimidin-2-yl]phenyl]-3-(pyridin-2-ylmethyl)urea] | 4400
C[C@H]1COCCN1c1cc(CS(C)(=O)=O)nc(-c2ccc(NC(=O)NCc3ccncc3)cc2)n1 [Example 24e, 1-[4-[4-[(3S)-3-methylmorpholin-4-yl]-6-(methylsulfonylmethyl)pyrimidin-2-yl]phenyl]-3-(pyridin-4-ylmethyl)urea] | 810
C[C@H]1COCCN1c1cc(CS(C)(=O)=O)nc(-c2ccc(NC(=O)NCc3cnn(C)c3)cc2)n1 [Example 24g, 1-[4-[4-[(3S)-3-methylmorpholin-4-yl]-6-(methylsulfonylmethyl)pyrimidin-2-yl]phenyl]-3-[(1-methylpyrazol-4-yl)methyl]urea] | 310
Cc1cc(CNC(=O)Nc2ccc(-c3nc(CS(C)(=O)=O)cc(N4CCOC[C@@H]4C)n3)cc2)no1 [Example 24h, 3-[4-[4-[(3S)-3-methylmorpholin-4-yl]-6-(methylsulfonylmethyl)pyrimidin-2-yl]phenyl]-1-[(5-methyl-1,2-oxazol-3-yl)methyl]urea] | 4400
C[C@H]1COCCN1c1cc(CS(C)(=O)=O)nc(-c2ccc(NC(=O)NCc3cccc(N(C)C)c3)cc2)n1 [Example 24i, 3-[(3-dimethylaminophenyl)methyl]-1-[4-[4-[(3S)-3-methylmorpholin-4-yl]-6-(methylsulfonylmethyl)pyrimidin-2-yl]phenyl]urea] | 330
C[C@H]1COCCN1c1cc(CS(C)(=O)=O)nc(-c2ccc(NC(=O)NCc3cncs3)cc2)n1 [Example 24j, 1-[4-[4-[(3S)-3-methylmorpholin-4-yl]-6-(methylsulfonylmethyl)pyrimidin-2-yl]phenyl]-3-(1,3-thiazol-5-ylmethyl)urea] | 220
CNC(=O)Nc1ccn(-c2nc(CS(C)(=O)=O)cc(N3CCOC[C@@H]3C)n2)n1 [Example 24k, 3-methyl-1-[1-[4-[(3S)-3-methylmorpholin-4-yl]-6-(methylsulfonylmethyl)pyrimidin-2-yl]pyrazol-3-yl]urea] | 180
CCNC(=O)Nc1ccn(-c2nc(CS(C)(=O)=O)cc(N3CCOC[C@@H]3C)n2)n1 [Example 24l, 1-ethyl-3-[1-[4-[(3S)-3-methylmorpholin-4-yl]-6-(methylsulfonylmethyl)pyrimidin-2-yl]pyrazol-3-yl]urea] | 840
C[C@H]1COCCN1c1cc(CS(C)(=O)=O)nc(-n2ccc(NC(=O)NC3CC3)n2)n1 [Example 24m, 3-cyclopropyl-1-[1-[4-[(3S)-3-methylmorpholin-4-yl]-6-(methylsulfonylmethyl)pyrimidin-2-yl]pyrazol-3-yl]urea] | 650

Compound | IC50 [nM]
CNC(=O)NC1CCN(c2nc(N3CCOC[C@@H]3C)cc(C(C)(C)S(C)(=O)=O)n2)CC1 [Example 24n, 3-methyl-1-[1-[4-[(3S)-3-methylmorpholin-4-yl]-6-(2-methylsulfonylpropan-2-yl)pyrimidin-2-yl]-4-piperidyl]urea] | 3200
CCNC(=O)NC1CCN(c2nc(N3CCOC[C@@H]3C)cc(C(C)(C)S(C)(=O)=O)n2)CC1 [Example 24o, 1-ethyl-3-[1-[4-[(3S)-3-methylmorpholin-4-yl]-6-(2-methylsulfonylpropan-2-yl)pyrimidin-2-yl]-4-piperidyl]urea] | 3400
C[C@H]1COCCN1c1cc(C(C)(C)S(C)(=O)=O)nc(N2CCC(NC(=O)NC3CC3)CC2)n1 [Example 24p, 3-cyclopropyl-1-[1-[4-[(3S)-3-methylmorpholin-4-yl]-6-(2-methylsulfonylpropan-2-yl)pyrimidin-2-yl]-4-piperidyl]urea] | 890
C[C@H]1COCCN1c1cc(C(C)(C)S(C)(=O)=O)nc(N2CCC(NC(=O)NCc3cnn(C)c3)CC2)n1 [Example 24q, 1-[1-[4-[(3S)-3-methylmorpholin-4-yl]-6-(2-methylsulfonylpropan-2-yl)pyrimidin-2-yl]-4-piperidyl]-3-[(1-methylpyrazol-4-yl)methyl]urea] | 5800
C[C@H]1COCCN1c1cc(CS(C)(=O)=O)nc(-c2ccc(NC(=O)NC3CC3)nc2)n1 [Example 24r, 3-cyclopropyl-1-[5-[4-[(3S)-3-methylmorpholin-4-yl]-6-(methylsulfonylmethyl)pyrimidin-2-yl]pyridin-2-yl]urea] | 340
C[C@H]1COCCN1c1cc(C(C)(C)S(C)(=O)=O)nc(-c2ccc(NC(=O)Nc3ccon3)cc2)n1 [Example 24s, 1-[4-[4-[(3S)-3-methylmorpholin-4-yl]-6-(2-methylsulfonylpropan-2-yl)pyrimidin-2-yl]phenyl]-3-(1,2-oxazol-3-yl)urea] | 4.7
Cc1cc(NC(=O)Nc2ccc(-c3nc(N4CCOC[C@@H]4C)cc(C(C)(C)S(C)(=O)=O)n3)cc2)no1 [Example 24t, 3-[4-[4-[(3S)-3-methylmorpholin-4-yl]-6-(2-methylsulfonylpropan-2-yl)pyrimidin-2-yl]phenyl]-1-(5-methyl-1,2-oxazol-3-yl)urea] | 12
C[C@H]1COCCN1c1cc(C(C)(C)S(C)(=O)=O)nc(-c2ccc(NC(=O)Nc3ncccn3)cc2)n1 [Example 24u, 1-[4-[4-[(3S)-3-methylmorpholin-4-yl]-6-(2-methylsulfonylpropan-2-yl)pyrimidin-2-yl]phenyl]-3-pyrimidin-2-yl-urea] | 120
C[C@H]1COCCN1c1cc(C(C)(C)S(C)(=O)=O)nc(-c2ccc(NC(=O)Nc3cc[nH]n3)cc2)n1 [Example 24v, 1-[4-[4-[(3S)-3-methylmorpholin-4-yl]-6-(2-methylsulfonylpropan-2-yl)pyrimidin-2-yl]phenyl]-3-(1H-pyrazol-3-yl)urea] | 55
C[C@H]1COCCN1c1cc(C(C)(C)S(C)(=O)=O)nc(-c2ccc(NC(=O)Nc3ccccc3)cc2)n1 [Example 24w, 1-[4-[4-[(3S)-3-methylmorpholin-4-yl]-6-(2-methylsulfonylpropan-2-yl)pyrimidin-2-yl]phenyl]-3-phenyl-urea] | 34
COc1ccc(NC(=O)Nc2ccc(-c3nc(N4CCOC[C@@H]4C)cc(C(C)(C)S(C)(=O)=O)n3)cc2)cn1 [Example 24x, 3-(6-methoxypyridin-3-yl)-1-[4-[4-[(3S)-3-methylmorpholin-4-yl]-6-(2-methylsulfonylpropan-2-yl)pyrimidin-2-yl]phenyl]urea] | 100
C[C@H]1COCCN1c1cc(C(C)(C)S(C)(=O)=O)nc(-c2ccc(NC(=O)Nc3ccc(F)cn3)cc2)n1 [Example 24y, 3-(5-fluoropyridin-2-yl)-1-[4-[4-[(3S)-3-methylmorpholin-4-yl]-6-(2-methylsulfonylpropan-2-yl)pyrimidin-2-yl]phenyl]urea] | 2200
C[C@H]1COCCN1c1cc(C(C)(C)S(C)(=O)=O)nc(-c2cnc(NC(=O)NCc3cnn(C)c3)nc2)n1 [Example 24z, 1-[5-[4-[(3S)-3-methylmorpholin-4-yl]-6-(2-methylsulfonylpropan-2-yl)pyrimidin-2-yl]pyrimidin-2-yl]-3-[(1-methylpyrazol-4-yl)methyl]urea] | 370
C[C@H]1COCCN1c1cc(CS(C)(=O)=O)nc(-n2ccc(NC(=O)Nc3ccccc3)n2)n1 [Example 25, 1-[1-[4-[(3S)-3-Methylmorpholin-4-yl]-6-(methylsulfonylmethyl)pyrimidin-2-yl]pyrazol-3-yl]-3-phenyl-urea] | 1900
COc1ccc(NC(=O)Nc2ccn(-c3nc(CS(C)(=O)=O)cc(N4CCOC[C@@H]4C)n3)n2)cc1 [Example 25a, 3-(4-methoxyphenyl)-1-[1-[4-[(3S)-3-methylmorpholin-4-yl]-6-(methylsulfonylmethyl)pyrimidin-2-yl]pyrazol-3-yl]urea] | 4400
